Test system: HCT116 colorectal cancer cells
Experiment: Cisplatin sensitization assay (96 h MTS cell viability);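 note: compound concentration needed to lower the IC50 of Cisplatin alone by a set fold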
Assay type: cell-based
Settings: Cisplatin sensitization value
How it was run: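 HCT116 cells were dosed simultaneously with compound and cisplatin as a full matrix of 2-fold serial dilutions from 10 μM top final concentration. Incubation was 96 h at 37° C., 5% CO2, followed by 1 h with MTS reagent for the viability read-out. Sensitization values were binned into +++, ++ and + categories.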

SMILES	Cisplatin Sensitization Assay
Cc1nnc(N2CCN(c3ccncc3NC(=O)c3c(N)nn4cc(F)cnc34)CC2)o1 [I-N-256, 2-amino-6-fluoro-N-(4-(4-(5-methyl-1,3,4-oxadiazol-2-yl)piperazin-1-yl)pyridin-3-yl)pyrazolo[1,5-a]pyrimidine-3-carboxamide]	++ (Compounds with a Cisplatin sensitization value >0.02 μM but <0.2 μM are marked with “++.”)
CC(=O)N1CCC2(CCN(c3ccncc3NC(=O)c3c(N)nn4cc(F)cnc34)CC2)C1 [I-N-257, N-(4-(2-acetyl-2,8-diazaspiro[4.5]decan-8-yl)pyridin-3-yl)-2-amino-6-fluoropyrazolo[1,5-a]pyrimidine-3-carboxamide]	+++ (Compounds with a Cisplatin sensitization value of <0.02 μM are marked with “+++.”)
Cn1ccc2cncc(NC(=O)c3c(N)nn4cc(F)cnc34)c21 [I-N-259, 2-amino-6-fluoro-N-(1-methyl-1H-pyrrolo[3,2-c]pyridin-7-yl)pyrazolo[1,5-a]pyrimidine-3-carboxamide]	+ (Compounds with a Cisplatin sensitization value >0.2 μM but <5 μM are marked with “+.”)
Cc1nonc1N1CCN(c2ccncc2NC(=O)c2c(N)nn3cc(F)cnc23)CC1 [I-N-260, 2-amino-6-fluoro-N-(4-(4-(4-methyl-1,2,5-oxadiazol-3-yl)piperazin-1-yl)pyridin-3-yl)pyrazolo[1,5-a]pyrimidine-3-carboxamide]	+++ (Compounds with a Cisplatin sensitization value of <0.02 μM are marked with “+++.”)
COC(=O)N1CCN(c2c(F)cncc2NC(=O)c2c(N)nn3cc(F)cnc23)CC1 [I-N-261, methyl-4-(3-(2-amino-6-fluoropyrazolo[1,5-a]pyrimidine-3-carboxamido)-5-fluoropyridin-4-yl)piperazine-1-carboxylate]	+++ (Compounds with a Cisplatin sensitization value of <0.02 μM are marked with “+++.”)
CC(=O)N1CCCC12CCN(c1ccncc1NC(=O)c1c(N)nn3cc(F)cnc13)CC2 [I-N-262, N-(4-(1-acetyl-1,8-diazaspiro[4.5]decan-8-yl)pyridin-3-yl)-2-amino-6-fluoropyrazolo[1,5-a]pyrimidine-3-carboxamide]	+++ (Compounds with a Cisplatin sensitization value of <0.02 μM are marked with “+++.”)
Cc1nncn1-c1ccncc1NC(=O)c1c(N)nn2cc(F)cnc12 [I-N-263, 2-amino-6-fluoro-N-(4-(3-methyl-4H-1,2,4-triazol-4-yl)pyridin-3-yl)pyrazolo[1,5-a]pyrimidine-3-carboxamide]	+ (Compounds with a Cisplatin sensitization value >0.2 μM but <5 μM are marked with “+.”)
Nc1nn2cc(F)cnc2c1C(=O)Nc1cnccc1N1CCCCCC1 [I-N-264, 2-amino-N-(4-(azepan-1-yl)pyridin-3-yl)-6-fluoropyrazolo[1,5-a]pyrimidine-3-carboxamide]	+ (Compounds with a Cisplatin sensitization value >0.2 μM but <5 μM are marked with “+.”)
Cc1nnc(C2CCN(c3ccncc3NC(=O)c3c(N)nn4cc(F)cnc34)CC2)o1 [I-N-265, 2-amino-6-fluoro-N-(4-(4-(5-methyl-1,3,4-oxadiazol-2-yl)piperidin-1-yl)pyridin-3-yl)pyrazolo[1,5-a]pyrimidine-3-carboxamide]	++ (Compounds with a Cisplatin sensitization value >0.02 μM but <0.2 μM are marked with “++.”)
COC1CCN(c2ccncc2NC(=O)c2c(N)nn3cc(F)cnc23)CC1 [I-N-266, 2-amino-6-fluoro-N-(4-(4-methoxypiperidin-1-yl)pyridin-3-yl)pyrazolo[1,5-a]pyrimidine-3-carboxamide]	+++ (Compounds with a Cisplatin sensitization value of <0.02 μM are marked with “+++.”)
CN(C)CC1CCN(c2ccncc2NC(=O)c2c(N)nn3cc(F)cnc23)CC1 [I-N-267, 2-amino-N-(4-(4-((dimethylamino)methyl)piperidin-1-yl)pyridin-3-yl)-6-fluoropyrazolo[1,5-a]pyrimidine-3-carboxamide]	+++ (Compounds with a Cisplatin sensitization value of <0.02 μM are marked with “+++.”)
Nc1nn2cc(F)cnc2c1C(=O)Nc1cnccc1N1CCC(c2nnco2)CC1 [I-N-268, N-(4-(4-(1,3,4-oxadiazol-2-yl)piperidin-1-yl)pyridin-3-yl)-2-amino-6-fluoropyrazolo[1,5-a]pyrimidine-3-carboxamide]	+++ (Compounds with a Cisplatin sensitization value of <0.02 μM are marked with “+++.”)
Cc1ncn(-c2ccncc2NC(=O)c2c(N)nn3cc(F)cnc23)c1C [I-N-269, 2-amino-N-(4-(4,5-dimethyl-1H-imidazol-1-yl)pyridin-3-yl)-6-fluoropyrazolo[1,5-a]pyrimidine-3-carboxamide]	++ (Compounds with a Cisplatin sensitization value >0.02 μM but <0.2 μM are marked with “++.”)
Nc1nn2cc(F)cnc2c1C(=O)Nc1cncc(F)c1N1CCCCC1 [I-N-270, 2-amino-6-fluoro-N-(5-fluoro-4-(piperidin-1-yl)pyridin-3-yl)pyrazolo[1,5-a]pyrimidine-3-carboxamide]	+++ (Compounds with a Cisplatin sensitization value of <0.02 μM are marked with “+++.”)
Nc1nn2cc(F)cnc2c1C(=O)Nc1cnccc1N1CCC(S(=O)(=O)N2CCC2)CC1 [I-N-271, 2-amino-N-(4-(4-(azetidin-1-ylsulfonyl)piperidin-1-yl)pyridin-3-yl)-6-fluoropyrazolo[1,5-a]pyrimidine-3-carboxamide]	+++ (Compounds with a Cisplatin sensitization value of <0.02 μM are marked with “+++.”)
CN1CCOC2(CCN(c3c(F)cncc3NC(=O)c3c(N)nn4cc(F)cnc34)CC2)C1 [I-N-272, 2-amino-6-fluoro-N-(5-fluoro-4-(4-methyl-1-oxa-4,9-diazaspiro[5.5]undecan-9-yl)pyridin-3-yl)pyrazolo[1,5-a]pyrimidine-3-carboxamide]	+++ (Compounds with a Cisplatin sensitization value of <0.02 μM are marked with “+++.”)
Nc1nn2cc(F)cnc2c1C(=O)Nc1cncc(F)c1N1CCC(S(=O)(=O)N2CCN3CCC2CC3)CC1 [I-N-273, N-(4-(4-(1,4-diazabicyclo[3.2.2]nonan-4-ylsulfonyl)piperidin-1-yl)-5-fluoropyridin-3-yl)-2-amino-6-fluoropyrazolo[1,5-a]pyrimidine-3-carboxamide]	+++ (Compounds with a Cisplatin sensitization value of <0.02 μM are marked with “+++.”)
Nc1nn2cc(F)cnc2c1C(=O)Nc1cncc(F)c1N1CCN(C(=O)C2CCOC2)CC1 (stereo not shown) [I-N-274, 2-amino-6-fluoro-N-(5-fluoro-4-(4-(tetrahydrofuran-3-carbonyl)piperazin-1-yl)pyridin-3-yl)pyrazolo[1,5-a]pyrimidine-3-carboxamide]	+++ (Compounds with a Cisplatin sensitization value of <0.02 μM are marked with “+++.”)
CC(=O)N1CCN(c2c(F)cncc2NC(=O)c2c(N)nn3cc(F)cnc23)CC1 [I-N-275, N-(4-(4-acetylpiperazin-1-yl)-5-fluoropyridin-3-yl)-2-amino-6-fluoropyrazolo[1,5-a]pyrimidine-3-carboxamide]	+++ (Compounds with a Cisplatin sensitization value of <0.02 μM are marked with “+++.”)

From patent US11117900B2 (Vertex Pharmaceuticals Incorporated, priority 2012, dated 2021)
